Experimental data reported in patent US9725445B2, “Cycloalkyl nitrile pyrazolo pyridones as Janus kinase inhibitors” (Merck Sharp & Dohme Corp., priority 2013, dated 2017).
pIC50: −log10 of the molar value.

Experiments:
JAK2 = JAK2 (Homo sapiens (Human), UniProt O60674); assay: Jak biochemical HTRF assay, JAK2; conditions: HTRF biochemical assay, recombinant GST-tagged catalytic domain; read-out: JAK2 IC50
JAK1 = JAK1 (Homo sapiens (Human), UniProt P23458); assay: Jak biochemical HTRF assay, JAK1; conditions: HTRF biochemical assay, recombinant GST-tagged catalytic domain; read-out: JAK1 IC50
Sequence of JAK1 (P23458 875-1153): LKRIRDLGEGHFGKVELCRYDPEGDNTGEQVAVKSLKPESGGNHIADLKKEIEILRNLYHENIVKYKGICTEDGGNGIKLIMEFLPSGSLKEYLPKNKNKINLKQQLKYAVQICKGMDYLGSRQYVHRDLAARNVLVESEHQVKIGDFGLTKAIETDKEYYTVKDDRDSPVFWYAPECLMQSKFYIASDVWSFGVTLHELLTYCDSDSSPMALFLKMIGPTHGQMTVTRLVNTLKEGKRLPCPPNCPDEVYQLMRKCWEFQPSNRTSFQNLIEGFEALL

Sequence of JAK2 (O60674 849-1124): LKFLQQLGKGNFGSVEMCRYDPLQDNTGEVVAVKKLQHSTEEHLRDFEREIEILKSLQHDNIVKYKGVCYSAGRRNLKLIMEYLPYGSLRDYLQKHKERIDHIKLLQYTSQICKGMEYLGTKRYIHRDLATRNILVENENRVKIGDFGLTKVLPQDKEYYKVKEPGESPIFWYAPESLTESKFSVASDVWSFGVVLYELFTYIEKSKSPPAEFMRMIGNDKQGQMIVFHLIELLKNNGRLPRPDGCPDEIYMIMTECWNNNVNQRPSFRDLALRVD

pIC50 (JAK2) | pIC50 (JAK1) | Compound
9.32 | 10.15 | CC(C)N1Cc2cc(Nc3nn([C@H]4CCCC[C@@H]4C#N)c4cc[nH]c(=O)c34)ccc2S1(=O)=O [Example 3-79, (1S,2S)-2-(3-{[2-(1-methylethyl)-1,1-dioxido-2,3-dihydro-1,2-benzisothiazol-5-yl]amino}-4-oxo-4,5-dihydro-1H-pyrazolo[4,3-c]pyridin-1-yl)cyclohexanecarbonitrile]
9.22 | 9.89 | N#C[C@H]1CCCC[C@@H]1n1nc(Nc2ccc(S(=O)(=O)NCC3CC3)cc2)c2c(=O)[nH]ccc21 [Example 3-20, 4-({1-[(1S,2S)-2-cyanocyclohexyl]-4-oxo-4,5-dihydro-1H-pyrazolo[4,3-c]pyridin-3-yl}amino)-N-(cyclopropylmethyl)benzene-sulfonamide]
8.60 | 10.11 | CC1c2cc(Nc3nn([C@H]4CCCC[C@@H]4C#N)c4cc[nH]c(=O)c34)ccc2S(=O)(=O)N1C (single isomer, unassigned) [Example 3-126, (1S,2S)-2-(3-(((R or S)-2,3-dimethyl-1,1-dioxido-2,3-dihydrobenzo[d]isothiazol-5-yl)amino)-4-oxo-4,5-dihydro-1H-pyrazolo[4,3-c]pyridin-1-yl)cyclohexanecarbonitrile]
9.23 | 10.00 | CNS(=O)(=O)c1ccc(Nc2nn([C@H]3CCCC[C@@H]3C#N)c3cc[nH]c(=O)c23)cc1 [Example 3-144, 4-({1-[(1S,2S)-2-cyanocyclohexyl]-4-oxo-4,5-dihydro-1H-pyrazolo[4,3-c]pyridin-3-yl}amino)-N-methylbenzenesulfonamide]
7.51 | 8.77 | N#C[C@H]1C[C@@H](N2CCC2)CC[C@@H]1n1nc(Nc2ccc(Cl)c(F)c2)c2c(=O)[nH]ccc21 [Example 5-4, (1S,2S,5S)-5-(azetidin-1-yl)-2-(3-((4-chloro-3-fluorophenyl)amino)-4-oxo-4,5-dihydro-1H-pyrazolo[4,3-c]pyridin-1-yl)cyclohexanecarbonitrile]
9.15 | 10.21 | N#C[C@H]1CCCC[C@@H]1n1nc(Nc2ccc3c(c2)CCS3(=O)=O)c2c(=O)[nH]ccc21 [Example 3-59, (1S,2S)-2-{3-[(1,1-dioxido-2,3-dihydro-1-benzothiophen-5-yl)amino]-4-oxo-4,5-dihydro-1H-pyrazolo[4,3-c]pyridin-1-yl}cyclohexanecarbonitrile]
9.11 | 10.00 | CC(C)(C)OC(=O)C(C)(C)N1Cc2cc(Nc3nn([C@H]4CCCC[C@@H]4C#N)c4cc[nH]c(=O)c34)ccc2S1(=O)=O [Example 3-152, tert-butyl 2-[5-({1-[(1S,2S)-2-cyanocyclohexyl]-4-oxo-4,5-dihydro-1H-pyrazolo[4,3-c]pyridin-3-yl}amino)-1,1-dioxido-1,2-benzisothiazol-2(3H)-yl]-2-methylpropanoate]
6.91 | 8.28 | C[C@H](NC1CCC(n2nc(Nc3ccc(Cl)cc3)c3c(=O)[nH]ccc32)C(C#N)C1)C1CC1 (stereo in doubt) [Example 4-1, (1R,2R,5S)-2-(3-((4-Chlorophenyl)amino)-4-oxo-4,5-dihydro-1H-pyrazolo[4,3-c]pyridin-1-yl)-5-(((S)-1-cyclopropylethyl)amino)cyclohexanecarbonitrile]
9.15 | 9.55 | N#C[C@H]1CCC[C@@H]1n1nc(Nc2ccc(C(N)C(F)(F)F)cc2)c2c(=O)[nH]ccc21 (single isomer, unassigned) [Example 3-103, (1S,2S)-2-[3-({4-[(1R or 1S)-1-amino-2,2,2-trifluoroethyl]phenyl}amino)-4-oxo-4,5-dihydro-1H-pyrazolo[4,3-c]pyridin-1-yl]cyclopentanecarbonitrile]
9.82 | 10.22 | Cc1cc(Nc2nn([C@H]3CCCC[C@@H]3C#N)c3cc[nH]c(=O)c23)ccc1C(C(C)C)n1ccnn1 (single isomer, unassigned) [Example 15-38, (1S,2S)-2-[3-({3-methyl-4-[(1R or 1S)-2-methyl-1-(1H-1,2,3-triazol-1-yl)propyl]phenyl}amino)-4-oxo-4,5-dihydro-1H-pyrazolo[4,3-c]pyridin-1-yl]cyclohexanecarbonitrile]
8.42 | 9.59 | CC(C)OC(=O)c1ccc2cc(Nc3nn([C@H]4CCCC[C@@H]4C#N)c4cc[nH]c(=O)c34)ccc2n1 [Example 15-16, isopropyl 6-((1-((1S,2S)-2-cyanocyclohexyl)-4-oxo-4,5-dihydro-1H-pyrazolo[4,3-c]pyridin-3-yl)amino)quinoline-2-carboxylate]

The next lines start with the compound.

Compound | pIC50 (JAK2) | pIC50 (JAK1)
N#C[C@H]1CCCC[C@@H]1n1nc(Nc2cccc(Cn3nccn3)c2)c2c(=O)[nH]ccc21 [Example 3-28, (1S,2S)-2-(4-oxo-3-{[3-(2H-1,2,3-triazol-2-ylmethyl)phenyl]amino}-4,5-dihydro-1H-pyrazolo[4,3-c]pyridin-1-yl)cyclohexanecarbonitrile] | 9.03 | 9.00
CC(C)(C)[S@+]([O-])N[C@H](c1cccc(Nc2nn([C@H]3CCCC[C@@H]3C#N)c3cc[nH]c(=O)c23)c1)C(F)(F)F [Example 3-42, N-{(1R)-1-[3-({1-[(1S,2S)-2-cyanocyclohexyl]-4-oxo-4,5-dihydro-1H-pyrazolo[4,3-c]pyridin-3-yl}amino)phenyl]-2,2,2-trifluoroethyl}-2-methylpropane-2-sulfinamide] | 7.89 | 9.34
N#C[C@H]1CCC[C@@H]1n1nc(Nc2ccc3c(c2)CN(CC(F)(F)F)S3(=O)=O)c2c(=O)[nH]ccc21 [Example 3-101, (1S,2S)-2-(3-{[1,1-dioxido-2-(2,2,2-trifluoroethyl)-2,3-dihydro-1,2-benzisothiazol-5-yl]amino}-4-oxo-4,5-dihydro-1H-pyrazolo[4,3-c]pyridin-1-yl)cyclopentanecarbonitrile] | 9.30 | 10.25
CC(C)C(c1ccc(Nc2nn([C@H]3CCCC[C@@H]3C#N)c3cc[nH]c(=O)c23)cc1)n1cc(C(=O)OC(C)(C)C)nn1 (single isomer, unassigned) [Example 15-57, tert-butyl 1-{(1S or 1R)-1-[4-({1-[(1S,2S)-2-cyanocyclohexyl]-4-oxo-4,5-dihydro-1H-pyrazolo[4,3-c]pyridin-3-yl}amino)phenyl]-2-methylpropyl}-1H-1,2,3-triazole-4-carboxylate] | 8.92 | 9.21
C[C@H](N[C@H]1CC[C@H](n2nc(Nc3ccc(OC(F)(F)F)cc3)c3c(=O)[nH]ccc32)[C@@H](C#N)C1)C1CC1 [Example 5-28, (1S,2S,5S)-5-(((S)-1-cyclopropylethyl)amino)-2-(4-oxo-3-((4-(trifluoromethoxy)phenyl)amino)-4,5-dihydro-1H-pyrazolo[4,3-c]pyridin-1-yl)cyclohexanecarbonitrile] | 7.43 | 9.30
N#C[C@H]1CCCC[C@@H]1n1nc(Nc2ccc3c(c2)CNCC3)c2c(=O)[nH]ccc21 [Example 3-157, (1S,2S)-2-[4-oxo-3-(1,2,3,4-tetrahydroisoquinolin-7-ylamino)-4,5-dihydro-1H-pyrazolo[4,3-c]pyridin-1-yl]cyclohexanecarbonitrile] | 9.06 | 9.35
CC(C)(C)OC(=O)NCc1ccc(Nc2nn([C@H]3CCCC[C@@H]3C#N)c3cc[nH]c(=O)c23)cc1 [Example 3-32, tert-butyl [4-({1-[(1S,2S)-2-cyanocyclohexyl]-4-oxo-4,5-dihydro-1H-pyrazolo[4,3-c]pyridin-3-yl}amino)benzyl]carbamate] | 8.82 | 9.35
N#C[C@@H]1C[C@H](N2CCC2)CC[C@H]1n1nc(Nc2ccc(C(F)(F)F)cc2)c2c(=O)[nH]ccc21 [Example 5-10, (1R,2R,5R)-5-(azetidin-1-yl)-2-(4-oxo-3-((4-(trifluoromethyl)phenyl)amino)-4,5-dihydro-1H-pyrazolo[4,3-c]pyridin-1-yl)cyclohexanecarbonitrile] | 6.03 | 7.43
CN(C)Cc1cccc(Nc2nn([C@H]3CCCC[C@@H]3C#N)c3cc[nH]c(=O)c23)c1 [Example 3-34, (1S,2S)-2-[3-({3-[(dimethylamino)methyl]phenyl}amino)-4-oxo-4,5-dihydro-1H-pyrazolo[4,3-c]pyridin-1-yl]cyclohexanecarbonitrile] | 8.96 | 8.96
N#C[C@H]1CCCC[C@@H]1n1nc(Nc2ccc3c(c2)CN(CC2CCCC2)C3)c2c(=O)[nH]ccc21 [Example 3-162, (1S,2S)-2-(3-{[2-(cyclopentylmethyl)-2,3-dihydro-1H-isoindol-5-yl]amino}-4-oxo-4,5-dihydro-1H-pyrazolo[4,3-c]pyridin-1-yl)cyclohexanecarbonitrile] | 9.04 | 9.48
N#C[C@H]1CCC[C@@H]1n1nc(Nc2ccc(C(N)C(F)(F)F)cc2)c2c(=O)[nH]ccc21 (single isomer, unassigned) [Example 3-104, (1S,2S)-2-[3-({4-[(1S or 1R)-1-amino-2,2,2-trifluoroethyl]phenyl}amino)-4-oxo-4,5-dihydro-1H-pyrazolo[4,3-c]pyridin-1-yl]cyclopentanecarbonitrile] | 9.23 | 9.66
N#C[C@H]1CCCC[C@@H]1n1nc(Nc2ccc3c(c2)CN(C2CCSCC2)C3=O)c2c(=O)[nH]ccc21 [Example 15-60, (1S,2S)-2-(4-oxo-3-{[1-oxo-2-(tetrahydro-2H-thiopyran-4-yl)-2,3-dihydro-1H-isoindol-5-yl]amino}-4,5-dihydro-1H-pyrazolo[4,3-c]pyridin-1-yl)cyclohexanecarbonitrile] | 9.29 | 9.96
N#C[C@H]1CCCC[C@@H]1n1nc(Nc2ccc(Cn3nccn3)cc2)c2c(=O)[nH]ccc21 [Example 3-45, (1S,2S)-2-(4-oxo-3-{[4-(2H-1,2,3-triazol-2-ylmethyl)phenyl]amino}-4,5-dihydro-1H-pyrazolo[4,3-c]pyridin-1-yl)cyclohexanecarbonitrile] | 9.38 | 9.43
